Experiments:
[1] = target: T1, IRE1a (Homo sapiens, UniProt O75460); assay: In vitro FRET assay (XBP1 RNA probe cleavage by IRE1a); type: biochemical; design: purchased SignalChem; conditions: 2 nM IRE1a protein
Description: In vitro FRET assay was performed to evaluate the ability of select compounds to inhibit IRE1, the results of which are summarized in Table 3. To perform the in vitro FRET assay, 1× complete assay buffer (CAB; […], 50 mM sodium citrate pH 7.15, ImM magnesium acetate, 0.02% tween 20) was used to dilute SignalChem IRE1a protein to a final concentration of 2 nM. Selected compounds were serially diluted with DMSO in a non-binding black 384-well plate for a total of 15 ul in each well. 2 ul of the serially diluted compound or DMSO control were then added to new wells containing 98 ul of 1×CAB, for a total volume of 100 ul, 10 ul of which were then transferred to wells of a new plate. 5 ul of the diluted IRE1a was then added to each well. 5 ul of a […] XBP1 RNA probe was then added to each well. Fluorescence was then read over 30 minutes in kinetic mode (485/515 nm).
Two RNA probes were used, XBP1 wildtype (SEQ ID NO: 2) which is able to be spliced by active IRE1a or XBP1 mutant (SEQ ID NO: 3) which is unable to be spliced. Each probe contained a 5′ 6-FAM modification and a 3′ IOWA Black FQ modification. […]

[2] = target: T1, IRE1a; assay: IRE1a Endoribonuclease Nanoluciferase Assay (XBP1 luciferase reporter in 293T cells); type: cell-based; conditions: 293T cells transfected with XBP1 luciferase reporter, ER stressors +/- inhibitors
Description: Compounds disclosed herein were assessed for disruption of IRE1 signaling using a IRE1a Endoribonuclease Nanoluciferase Assay. Briefly, 2.5×10^6 293T cells were seeded in a 10 cm^2 tissue culture plate. About 24 hours later, the cells were transfected with Effectene. In a 15 mL Tube, the following was added: 2 ug XBP1 luciferase reporter plasmid (PGK-Luc2-P2A-XBP1u-Nanoluciferase-PEST); 300 ul EC buffer; and 16 ul Enhancer, followed by incubation at room temp for 5 minutes. Next, 60 ul Effectene (Qiagen 301427) was added, followed by incubation at room temperature for 10 minutes. 2.6 mL cDMEM media was added. Old media was aspirated from the cells, followed by addition of 7 mL fresh media. Full transfection mixture was added dropwise to cells. Cells were incubated for 6 hours, followed by trypsinization, centrifugation and resuspension in 11 mL media. 100 uL of cells were plated per a well in a 96 well plate. A day later, ER stressors of choice +/− inhibitors were added. To harvest, media was aspirated from cells completely, then 50 uL 1× passive lysis buffer (Promega: E1941) was added per well and put on shaker (300 rpm) for 30 minutes at room temperature. Cells were centrifuged, and 15 uL sample per well was added to a new, opaque white 384 well plate (Corning 3570). 15 uL OneGlo (nanoluciferase kit, Promega N1630) was added. Plates were spun down, placed on shaker (300 rpm) for 10 minutes. Plates were read on luminometer, 1000 ms integration time per well. 15 uL Stop and Glo (nanoluciferase kit) was added. Plates were spun down, placed on shaker (300 rpm) for 10 minutes. Plates were read on luminometer, 1000 ms second integration time per well. Recordings are provided below in Table 4.

T1 sequence (O75460 19-977): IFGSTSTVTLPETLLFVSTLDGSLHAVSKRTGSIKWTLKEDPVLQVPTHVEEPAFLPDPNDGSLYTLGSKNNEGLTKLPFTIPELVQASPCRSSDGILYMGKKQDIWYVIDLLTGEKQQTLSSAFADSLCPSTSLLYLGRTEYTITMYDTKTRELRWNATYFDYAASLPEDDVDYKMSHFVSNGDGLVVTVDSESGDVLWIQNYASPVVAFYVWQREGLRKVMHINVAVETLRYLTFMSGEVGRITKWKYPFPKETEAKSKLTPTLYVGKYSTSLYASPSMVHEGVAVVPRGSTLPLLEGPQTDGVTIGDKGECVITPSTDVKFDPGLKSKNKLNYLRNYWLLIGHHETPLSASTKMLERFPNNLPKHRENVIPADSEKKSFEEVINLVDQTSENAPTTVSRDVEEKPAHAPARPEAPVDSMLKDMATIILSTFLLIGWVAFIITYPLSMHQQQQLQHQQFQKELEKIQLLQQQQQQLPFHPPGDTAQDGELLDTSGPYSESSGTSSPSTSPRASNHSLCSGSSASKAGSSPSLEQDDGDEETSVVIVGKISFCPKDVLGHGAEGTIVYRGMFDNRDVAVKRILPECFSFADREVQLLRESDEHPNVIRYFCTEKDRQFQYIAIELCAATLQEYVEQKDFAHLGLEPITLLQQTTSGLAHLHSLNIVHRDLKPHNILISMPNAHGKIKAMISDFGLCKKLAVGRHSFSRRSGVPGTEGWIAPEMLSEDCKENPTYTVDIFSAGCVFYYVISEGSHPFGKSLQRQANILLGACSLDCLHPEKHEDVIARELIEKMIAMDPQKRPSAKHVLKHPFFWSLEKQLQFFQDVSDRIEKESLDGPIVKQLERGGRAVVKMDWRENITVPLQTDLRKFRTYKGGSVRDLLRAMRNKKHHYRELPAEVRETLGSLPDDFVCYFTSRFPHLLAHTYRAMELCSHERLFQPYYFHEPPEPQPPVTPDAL

O=S(=O)(Nc1ccc(-c2ccc3nc(N[C@H]4CCCNC4)ncc3c2)cc1F)c1ccccc1Cl [76; Formic Acid]
IC50 [1]: ≤ 5 nM
EC50 [2]: 5 to 50 nM

NC1CCCC(Nc2ncc3cc(-c4ccc(NS(=O)(=O)c5ccccc5Cl)c(F)c4)ccc3n2)C1 (stereo not drawn) [75; Formic Acid]
IC50 [1]: ≤ 5 nM
EC50 [2]: > 100 nM

N[C@H]1CC[C@H](Nc2ncc3cc(-c4ccc(NS(=O)(=O)c5ccccc5Cl)cc4)ccc3n2)CC1 [26; Formic Acid]
IC50 [1]: ≤ 5 nM
EC50 [2]: ≤ 5 nM

CCc1cc(-c2cnc(NS(=O)(=O)c3ccccc3Cl)cc2OC)cc2cnc(N[C@H]3CC[C@H](N)CC3)nc12 [92; Formic Acid]
IC50 [1]: ≤ 5 nM
EC50 [2]: > 100 nM

CCc1cc(-c2ccc(NS(=O)(=O)c3ccccc3Cl)c(F)c2)cc2cnc(NC34CCC(N)(CC3)CC4)nc12 [87; Formic Acid]
IC50 [1]: ≤ 5 nM
EC50 [2]: ≤ 5 nM

CCc1cc(-c2ccc(NS(=O)(=O)c3ccccc3Cl)c(F)c2)cc2cnc(N[C@H]3CC4C[C@H](N)CC4C3)nc12 (stereo partly drawn) [82; Formic Acid]
IC50 [1]: ≤ 5 nM
EC50 [2]: 5 to 50 nM

CCc1cc(-c2cc(NS(=O)(=O)c3ccccc3Cl)no2)cc2cnc(N[C@H]3CC[C@H](N)CC3)nc12 [44; Formic Acid]
IC50 [1]: ≤ 5 nM
EC50 [2]: ≤ 5 nM

COCc1cc(-c2ccc(NS(=O)(=O)c3ccccc3Cl)nc2OC)cc2cnc(N[C@H]3CC[C@H](N)CC3)nc12 [129; Formic Acid]
IC50 [1]: ≤ 5 nM
EC50 [2]: ≤ 5 nM

N-(4-(2-(((1r,4r)-4-aminocyclohexyl)amino)quinazolin-6-yl)-3-methylphenyl)-3-chlorobenzenesulfonamide [Compound 11]
IC50 [1]: ≤ 5 nM
EC50 [2]: > 100 nM

CCc1cc(-c2cc(CC)c3nc(N[C@H]4CC[C@H](N)CC4)ncc3c2)nnc1NS(=O)(=O)c1ccccc1Cl [100; Formic Acid]
IC50 [1]: ≤ 5 nM
EC50 [2]: 50 to 100 nM

CCc1cc(-c2ncc(NS(=O)(=O)c3ccccc3Cl)nc2OC)cc2cnc(N[C@H]3CC[C@H](N)CC3)nc12 [98; Formic Acid]
IC50 [1]: ≤ 5 nM
EC50 [2]: ≤ 5 nM

CCc1cc(-c2ccc(NS(=O)(=O)c3ccccc3Cl)c(F)c2)cc2cnc(N[C@H]3CC4C[C@@H](N)CC4C3)nc12 (stereo partly drawn) [84; Formic Acid]
IC50 [1]: ≤ 5 nM
EC50 [2]: 5 to 50 nM

CCc1cc(-c2ccc(NS(=O)(=O)c3ccccc3Cl)c(F)c2)cc2cnc(N[C@@H]3CCC[C@H](N)C3)nc12 [72; Formic Acid]
IC50 [1]: ≤ 5 nM
EC50 [2]: > 100 nM

N[C@H]1CC[C@H](Nc2ncc3cc(-c4ccc(NS(=O)(=O)c5ccccc5Cl)c(F)c4F)ccc3n2)CC1 [56; Formic Acid]
IC50 [1]: ≤ 5 nM
EC50 [2]: ≤ 5 nM

N[C@H]1CC[C@H](Nc2ncc3cc(-c4ncc(NS(=O)(=O)c5ccccc5Cl)cc4F)ccc3n2)CC1 [51; Formic Acid]
IC50 [1]: ≤ 5 nM
EC50 [2]: 50 to 100 nM

CCc1cc(-c2ccc(NS(=O)(=O)c3ccccc3)nc2C)cc2cnc(N[C@H]3CC[C@H](N)CC3)nc12 [111; Formic Acid]
IC50 [1]: ≤ 5 nM
EC50 [2]: 50 to 100 nM

COc1nc(NS(=O)(=O)c2ccccc2C#N)ccc1-c1cc2cnc(N[C@H]3CC[C@H](N)CC3)nc2cc1C [102; Formic Acid]
IC50 [1]: ≤ 5 nM
EC50 [2]: 50 to 100 nM

Cc1cc(NS(=O)(=O)c2ccccc2Cl)ccc1-c1ccc2nc(N[C@H]3CC[C@H](N)CC3)ncc2c1 [Compound 2, N-(4-(2-(((1r,4r)-4-aminocyclohexyl)amino)quinazolin-6-yl)-3-methylphenyl)-2-chlorobenzenesulfonamide]
IC50 [1]: ≤ 5 nM
EC50 [2]: > 100 nM

Cn1nc(NS(=O)(=O)c2ccccc2Cl)cc1-c1ccc2nc(N[C@H]3CC[C@H](N)CC3)ncc2c1 [Compound 1, N-(5-(2-(((1r,4r)-4-aminocyclohexyl)amino)quinazolin-6-yl)-1-methyl-1H-pyrazol-3-yl)-2-chlorobenzenesulfonamide]
IC50 [1]: 5 to 50 nM
EC50 [2]: > 100 nM

Cc1cc(NS(=O)(=O)c2ccccc2Cl)ncc1-c1ccc2nc(N[C@H]3CC[C@H](N)CC3)ncc2c1 [Compound 5, N-(5-(2-(((1r,4r)-4-aminocyclohexyl)amino)quinazolin-6-yl)-4-methylpyridin-2-yl)-2-chlorobenzenesulfonamide]
IC50 [1]: ≤ 5 nM
EC50 [2]: > 100 nM

Cc1cc2nc(N[C@H]3CC[C@H](N)CC3)ncc2cc1-c1ccc(NS(=O)(=O)c2ccccc2Cl)c(F)c1 [90; Formic Acid]
IC50 [1]: ≤ 5 nM
EC50 [2]: 5 to 50 nM

CCc1cc(-c2ccc(NS(=O)(=O)c3ccccc3Cl)c(F)c2)cc2cnc(N[C@H]3CCCNC3)nc12 [73; Formic Acid]
IC50 [1]: ≤ 5 nM
EC50 [2]: ≤ 5 nM

CCc1cc(-c2ccc(NS(=O)(=O)c3cccc(C)c3)nc2C)cc2cnc(N[C@H]3CC[C@H](N)CC3)nc12 [113; Formic Acid]
IC50 [1]: ≤ 5 nM
EC50 [2]: 5 to 50 nM

NC12CCC(Nc3ncc4cc(-c5ccc(NS(=O)(=O)c6ccccc6Cl)c(F)c5)ccc4n3)(CC1)CC2 [81; Formic Acid]
IC50 [1]: ≤ 5 nM
EC50 [2]: ≤ 5 nM

CCc1cc(-c2ccc(NS(=O)(=O)c3ccccc3Cl)c(F)c2)cc2cnc(N[C@@H]3CC[C@H](N)[C@H](C)C3)nc12 [70; Formic Acid]
IC50 [1]: ≤ 5 nM
EC50 [2]: ≤ 5 nM

COc1nc(NS(=O)(=O)c2ccccc2Cl)ccc1-c1cc(C)c2nc(N[C@H]3CC[C@H](N)CC3)ncc2c1 [115; Formic Acid]
IC50 [1]: ≤ 5 nM
EC50 [2]: ≤ 5 nM

NC12CCC(Nc3ncc4cc(-c5ccc(NS(=O)(=O)c6ccccc6Cl)c(F)c5)ccc4n3)(CC1)C2 [86; Formic Acid]
IC50 [1]: ≤ 5 nM
EC50 [2]: 50 to 100 nM

CCc1cc(-c2ccc(NS(=O)(=O)c3ccccc3Cl)c(F)c2)cc2cnc(N[C@@H]3CC[C@@H](N)C3)nc12 [78; Formic Acid]
IC50 [1]: ≤ 5 nM
EC50 [2]: ≤ 5 nM

N[C@H]1CC[C@H](Nc2ncc3cc(-c4c(F)cc(NS(=O)(=O)c5ccccc5Cl)cc4F)ccc3n2)CC1 [62; Formic Acid]
IC50 [1]: ≤ 5 nM
EC50 [2]: 5 to 50 nM

COc1nc(NS(=O)(=O)c2ccccc2Cl)ccc1-c1cc(C(F)(F)F)c2nc(N[C@H]3CC[C@H](N)CC3)ncc2c1 [134; Formic Acid]
IC50 [1]: ≤ 5 nM
EC50 [2]: ≤ 5 nM

CCc1cc(-c2cnc(NS(=O)(=O)c3ccccc3Cl)cc2C)cc2cnc(N[C@H]3CC[C@H](N)CC3)nc12 [Compound 4, N-(5-(2-(((1r,4r)-4-aminocyclohexyl)amino)-8-ethylquinazolin-6-yl)-4-methylpyridin-2-yl)-2-chlorobenzenesulfonamide]
IC50 [1]: ≤ 5 nM
EC50 [2]: 50 to 100 nM

N[C@H]1CC[C@H](Nc2ncc3cc(-c4ccc(NS(=O)(=O)c5ccccc5Cl)cc4F)ccc3n2)CC1 [48; Formic Acid]
IC50 [1]: ≤ 5 nM
EC50 [2]: 5 to 50 nM

N[C@H]1CC[C@@H](Nc2ncc3cc(-c4ccc(NS(=O)(=O)c5ccccc5Cl)c(F)c4)ccc3n2)C1 [80; Formic Acid]
IC50 [1]: ≤ 5 nM
EC50 [2]: > 100 nM

CCc1cc(-c2ccc(NS(=O)(=O)c3ccccc3Cl)c(F)c2)cc2cnc(N[C@H]3CC[C@H](N4CCCC4)CC3)nc12 [88; Formic Acid]
IC50 [1]: ≤ 5 nM
EC50 [2]: ≤ 5 nM

CCc1cc2nc(N[C@H]3CC[C@H](N)CC3)ncc2cc1-c1ccc(NS(=O)(=O)c2ccccc2Cl)nc1OC [110; Formic Acid]
IC50 [1]: ≤ 5 nM
EC50 [2]: ≤ 5 nM

CCc1cc(-c2ncc(NS(=O)(=O)c3ccccc3Cl)nc2C)cc2cnc(N[C@H]3CC[C@H](N)CC3)nc12 [94; Formic Acid]
IC50 [1]: ≤ 5 nM
EC50 [2]: ≤ 5 nM
